Measured values as given in paper PMC3135787 (Antiviral research, 2011).
Like-named read-outs stand apart in the source and are kept apart here.

Assays:
[1] = tested on: primary human hepatocytes; assay: Metabolism of [3H]-PSI-353661 in primary human hepatocytes; format: in vitro ADME; conditions: continuous exposure to 5 μM [3H]-PSI-353661
recombinant human ADAL1 = biological target: T1, recombinant human ADAL1 (Homo sapiens, UniProt Q6DHV7); assay: ADAL1-mediated demethylation assay; format: biochemical; conditions: ADAL1, pH 6.7, 37°C
T1 sequence (Q6DHV7 1-355): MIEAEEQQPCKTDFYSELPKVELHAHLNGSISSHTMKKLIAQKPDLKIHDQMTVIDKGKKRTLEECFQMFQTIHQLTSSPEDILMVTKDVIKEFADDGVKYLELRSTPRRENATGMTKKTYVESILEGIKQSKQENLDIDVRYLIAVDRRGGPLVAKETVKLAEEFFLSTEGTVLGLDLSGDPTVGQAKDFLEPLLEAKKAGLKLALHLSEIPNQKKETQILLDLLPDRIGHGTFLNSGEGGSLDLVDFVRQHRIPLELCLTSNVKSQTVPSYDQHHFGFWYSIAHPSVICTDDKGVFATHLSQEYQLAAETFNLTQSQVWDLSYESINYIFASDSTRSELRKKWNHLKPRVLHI

[2] = tested on: ET replicon with NS5B M414T; assay: microbe, parasite or virus in culture; format: cell-based, HCV
[3] = 8-day MTS cytotoxicity assay, HepG2; format: cell-based, human; conditions: human, HepG2 cells
[4] = 8-day MTS cytotoxicity assay, Huh7; format: cell-based, human; conditions: human, Huh7 cells
[5] = 8-day MTS cytotoxicity assay, CEM; format: cell-based, human; conditions: human, CEM cells
[6] = 8-day MTS cytotoxicity assay, BxPC3; format: cell-based, human; conditions: human, BxPC3 cells
[7] = tested on: ET replicon with NS5B P495L; assay: microbe, parasite or virus in culture; format: cell-based, HCV
[8] = tested on: ET replicon with NS5B S96T/N142T; assay: microbe, parasite or virus in culture; format: cell-based, HCV; conditions: for EC90: read-out: EC90 Mutant replicon; for EC90 fold change: S96T/N142T mutant EC90 normalised to wild-type
[9] = tested on: Clone A replicon with NS5B S282T; assay: microbe, parasite or virus in culture; format: cell-based, HCV; conditions: for EC90: read-out: EC90 Mutant replicon; for EC90 fold change: S282T mutant EC90 normalised to wild-type
[10] = tested on: Clone A wild type replicon; assay: Cross resistance: Clone A wild type replicon, RT-PCR; format: cell-based, HCV; conditions: read-out: EC90 WT replicon
[11] = biological target: T2, Human guanylate kinase (hGUK1) (Homo sapiens, UniProt Q16774); assay: hGUK1-mediated phosphorylation, coupled spectrophotometric assay; format: biochemical
T2 sequence (Q16774 1-197): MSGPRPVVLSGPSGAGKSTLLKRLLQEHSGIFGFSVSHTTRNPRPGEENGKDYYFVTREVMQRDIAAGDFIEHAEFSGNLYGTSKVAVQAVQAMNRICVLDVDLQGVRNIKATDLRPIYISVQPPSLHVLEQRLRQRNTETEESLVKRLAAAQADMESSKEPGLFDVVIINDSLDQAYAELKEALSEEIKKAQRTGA

[12] = tested on: ET replicon with NS5B C316Y; assay: microbe, parasite or virus in culture; format: cell-based, HCV
ribosomal DNA (rDNA) [13] = assay: Mitochondrial COXII DNA and ribosomal DNA by real time PCR, HepG2; format: cell-based, human; conditions: human, HepG2 cells
HepG2 cells [14] = assay: as above; format: cell-based, human; conditions: HepG2 cells, 0.5 μM (lowest concentration tested), 14 days
[15] = tested on: mitochondrial COXII DNA (mtDNA); assay: as above; format: cell-based, human; conditions: human
CEM cells [16] = assay: Lactic acid production, CEM; conditions: 7 days, normalised to rDNA
HepG2 cells [17] = assay: Lactic acid production, HepG2; conditions: 7 days, normalised to rDNA
CEM cells [18] = assay: Mitochondrial COXII DNA and ribosomal DNA by real time PCR, CEM; format: cell-based, human; conditions: CEM cells, 0.5 μM (lowest concentration tested), 14 days
ribosomal DNA (rDNA) [19] = assay: as above; format: cell-based, human; conditions: human, CEM cells
[20] = tested on: mitochondrial COXII DNA (mtDNA); assay: as above; format: cell-based, human; conditions: human
[21] = tested on: Human nucleoside diphosphate kinase (NDPK); assay: NDPK-mediated phosphorylation, coupled assay; format: biochemical
[22] = tested on: genotype 1b ET replicon, wild type; format: cell-based, HCV; conditions: read-out: EC90 WT replicon; wild-type ET replicon, luciferase-based assay
[23] = tested on: ET replicon with NS5B M423T; format: cell-based, HCV
[24] = tested on: erythroid progenitor cells (CFU-E and BFU-E); assay: Human bone marrow stem cell toxicity, 14-day colony formation, erythroid; format: cell-based; conditions: 1 μg/mL (4 μM), 14 days
[25] = tested on: myeloid progenitor cells (CFU-GM); assay: Human bone marrow stem cell toxicity, 14-day colony formation, myeloid; format: cell-based; conditions: 1 μg/mL (4 μM), 14 days
[26] = tested on: genotype 2a J6/JFH-1 subgenomic replicon; assay: HCV replicon assay, genotype 2a J6/JFH-1; format: cell-based; conditions: GT2a_JFH-1 replicon, four days
[27] = tested on: genotype 1b replicon (Con1 strain); assay: HCV replicon assay, genotype 1b Con1; format: cell-based; conditions: GT1b_Con1 replicon, four days (96 h)
[28] = tested on: genotype 1a H77 subgenomic replicon; assay: HCV replicon assay, genotype 1a H77; format: cell-based; conditions: GT1a_H77 replicon, four days
[29] = Hepatitis C virus, read-out: EC90 Mutant replicon

SMILES: COc1nc(N)nc2c1ncn2[C@@H]1O[C@H](CO)[C@@H](O)[C@@]1(C)F [PSI-352878, (2R,3R,4R,5R)-5-(2-amino-6-methoxy-purin-9-yl)-4-fluoro-2-hydroxymethyl-4-methyl-tetrahydro-furan-3-ol]
- time to maximum intracellular concentration [1]: 0.5 to 1 h

SMILES: CNc1ncnc2c1ncn2[C@@H]1O[C@H](COP(=O)(O)O)[C@@H](O)[C@H]1O [N^6-meAMP, N^6-methyl AMP, reference compound]
- Km (recombinant human ADAL1): 12.5 ± 1.6 µM
- kcat (recombinant human ADAL1): 1.58 ± 0.12 s⁻¹

SMILES: CC(C)CCn1c(=O)c(C2=NS(=O)(=O)c3cc(N(C)S(C)(=O)=O)ccc3N2)c(O)c2cccn21 [Benzothiadiazine, N-{3-[4-Hydroxy-1-(3-methyl-butyl)-2-oxo-1,2-dihydro-pyrrolo[1,2-b]pyridazin-3-yl]-1,1-dioxo-1,4-dihydro-1λ^6-benzo[1,2,4]thiadiazin-7-yl}-N-methyl-methanesulfonamide, reference compound]
- EC90 [2, 29]: 28.4 ± 13.7 µM
- EC90 fold change ([2]; M414T mutant EC90 normalised to wild-type): 23.1

SMILES: Nc1ccn([C@@H]2O[C@H](CO)[C@@H](O)C2(F)F)c(=O)n1 [Gemcitabine, 2′-deoxy-2′-difluorocytidine]
- CC50 at 8 days [3]: < 1 µM
- CC50 at 8 days [4]: < 1 µM
- CC50 at 8 days [5]: < 1 µM
- CC50 at 8 days [6]: < 1 µM

SMILES: COc1ccc2c(c1)C1CC1(N)Cn1c-2c(C2CCCCC2)c2ccc(C(=O)NS(=O)(=O)N(C)C)cc21 (stereo not shown) [2-phenol indole, 5a-amino-12-cyclohexyl-N-(N,N-dimethylsulfamoyl)-3-methoxy-4b,5,5a,6-tetrahydrobenzo [3,4] cyclopropa [5,6] azepino [1,2-a] indole-9-carboxamide, reference compound]
- EC90 [7, 29]: 60.8 ± 19.9 µM
- EC90 fold change ([7]; P495L mutant EC90 normalised to wild-type): 51.9

SMILES: [N-]=[N+]=N[C@]1(CO)O[C@@H](n2ccc(N)nc2=O)[C@H](O)[C@@H]1O [R1479, 4′-azidocytidine]
- EC90 ([8]; Hepatitis C virus): 74.1 ± 12.1 µM
- EC90 fold change [8]: 4.7
- EC90 ([9]; Hepatitis C virus): 12.5 ± 3.78 µM
- EC90 fold change [9]: 0.6
- EC90 ([10]; Hepatitis C virus): 22.4 ± 4.58 µM

SMILES: C[C@@]1(F)[C@H](O)[C@@H](COP(=O)(O)O)O[C@H]1n1cnc2c(=O)[nH]c(N)nc21 [PSI-353222, 2′-deoxy-2-α-fluoro-2-β-C-methylguanosine-5′-monophosphate]
- time to maximum intracellular concentration [1]: 1 to 2 h
- Km compared to GMP (fold weaker) ([11]; hGUK1): 3.4 fold
- kcat compared to GMP (fold lower) ([11]; hGUK1): approximately 240 fold
- Km ([11]; hGUK1, 37°C): 64.9 ± 1.6 µM
- kcat ([11]; hGUK1, 37°C): 0.31 ± 0.03 s⁻¹

SMILES: CNC(=O)c1c(-c2ccc(F)cc2)oc2cc(N(CCO)S(C)(=O)=O)c(C3CC3)cc12 [HCV-796, 5-cyclopropyl-2-(4-fluoro-phenyl)-6-[(2-hydroxy-ethyl)-methanesulfonyl-amino]-benzofuran-3-carboxylic acid methylamide, reference compound]
- EC90 fold change ([12]; C316Y mutant EC90 normalised to wild-type): 73.9
- EC90 [12, 29]: 1.92 ± 0.77 µM

SMILES: Nc1ccn([C@H]2CC[C@@H](CO)O2)c(=O)n1 [ddC, 2′,3′-dideoxycytidine]
- CC90 at 14 days (ribosomal DNA (rDNA) [13]): 12.9 ± 9.1 µM
- reduction of mitochondrial DNA levels (HepG2 cells [14]): more than one log10
- CC90 at 14 days [15]: < 0.5 µM
- Lactic acid (Fold change from untreated cells) (CEM cells [16]; 0.1 μM): 0.9 ± 0.3
- Lactic acid (Fold change from untreated cells) (CEM cells [16]; 1.0 μM): 2.2 ± 0.81
- Lactic acid (Fold change from untreated cells) (CEM cells [16]; 10 μM): 4.2 ±1.0
- Lactic acid (Fold change from untreated cells) (CEM cells [16]; 50 μM): Toxic
- Lactic acid (Fold change from untreated cells) (HepG2 cells [17]; 0.1 μM): 1.6 ± 0.68
- Lactic acid (Fold change from untreated cells) (HepG2 cells [17]; 1.0 μM): 1.4 ± 0.12
- Lactic acid (Fold change from untreated cells) (HepG2 cells [17]; 10 μM): 3.9 ± 0.93
- Lactic acid (Fold change from untreated cells) (HepG2 cells [17]; 50 μM): Toxic.
- reduction of mitochondrial DNA levels (CEM cells [18]): more than one log10
- CC90 at 14 days (ribosomal DNA (rDNA) [19]): 22.9 ± 11.9 µM
- CC90 at 14 days [20]: < 0.5 µM

SMILES: Nc1nc2c(ncn2[C@@H]2O[C@H](COP(=O)(O)OP(=O)(O)O)[C@@H](O)[C@H]2O)c(=O)[nH]1 [GDP, guanosine-5′-diphosphate, reference compound]
- kcat (apparent) ([21]; 25 °C, PK contributed in the phosphorylation): 38.8 ± 5.0 s⁻¹
- Km ([21]; read-out: Km (apparent), 25 °C, PK contributed in the phosphorylation): 56.2 ± 4.9 µM

SMILES: CC(C)N(c1cc(-c2ccccc2)sc1C(=O)O)C(=O)[C@H]1CC[C@H](C)CC1 [Thiophene, 3-((1r,4r)-N-isopropyl-4-methylcyclohexanecarboxamido)-5-phenylthiophene-2-carboxylic acid, reference compound]
- EC90 [22]: 3.65 ± 0.21 µM
- EC90 fold change ([23]; M423T mutant EC90 normalised to wild-type): 19.1
- EC90 ([23]; read-out: EC90 Mutant replicon, M423T, luciferase-based assay): 69.5 ± 9.24 µM

SMILES: COc1nc(N)nc2c1ncn2[C@@H]1O[C@H](COP(=O)(O)O)[C@@H](O)[C@H]1O [O^6-meGMP, O^6-methyl GMP, reference compound]
- Km (recombinant human ADAL1): 5.2 ± 0.9 µM
- kcat (recombinant human ADAL1): 2.33 ± 0.07 s⁻¹

SMILES: O=c1[nH]cc(F)c(=O)[nH]1 [5-fluorouracil, 5-Fluorouracil, reference compound]
- inhibition of BFU-E colony formation [24]: completely inhibited
- inhibition of CFU-GM colony formation [25]: completely inhibited

SMILES: COc1nc(N)nc2c1ncn2[C@@H]1O[C@H](COP(=O)(O)N[C@@H](C)C(=O)O)[C@@H](O)[C@@]1(C)F [PSI-353131, (S)-2-{[(2R,3R,4R,5R)-5-(2-amino-6-methoxy-purin-9-yl)-4-fluoro-3-hydroxy-4-methyl-tetrahydro-furan-2-ylmethoxy]-hydroxy-phosphorylamino}-propionic acid]
- time to maximum intracellular concentration [1]: 0.25 h
- Km (recombinant human ADAL1): No activity
- kcat (recombinant human ADAL1): No activity
- kcat / Km (recombinant human ADAL1): No activity

SMILES: CC(C)OC(=O)[C@H](C)NP(=O)(OC[C@H]1O[C@@H](n2ccc(=O)[nH]c2=O)[C@](C)(F)[C@@H]1O)Oc1ccccc1 (stereo partly shown) [PSI-7851]
- EC90 fold change [8]: 0.9
- EC90 ([8]; S96T/N142T, luciferase-based assay): 0.39 ± 0.19 µM
- EC90 fold change [9]: 16.7
- EC90 ([9]; S282T, RT-PCR assay): 7.36 ± 1.02 µM
- EC90 ([10]; Clone A wild type replicon, RT-PCR assay): 0.44 ± 0.21 µM
- EC90 [22]: 0.43 ± 0.23 µM

SMILES: COc1nc(N)nc2c1ncn2[C@@H]1O[C@H](COP(=O)(O)O)[C@@H](O)[C@@]1(C)F [PSI-353224, 2-amino-6-methoxypurine 2′-deoxy-2′-α-fluoro-2-β-C-methylribose-5′-monophosphate]
- time to maximum intracellular concentration [1]: 0.5 to 1 h
- activity as substrate ([11]; hGUK1, 500 μM, the highest concentration tested): No activity
- Km ([11]; hGUK1, 37°C): No activity
- kcat ([11]; hGUK1, 37°C): No activity
- kcat / Km ([11]; hGUK1, 37°C): No activity
- Km (recombinant human ADAL1): 9 ± 2.1 µM
- kcat (recombinant human ADAL1): 5.84 ± 0.40 s⁻¹

SMILES: C[C@@]1(F)[C@H](O)[C@@H](CO)O[C@H]1n1cnc2c(=O)[nH]c(N)nc21 [PSI-6567, 2′-F-2′-C-methylguanosine]
- EC50 [26]: 38.3 ± 18.6 µM
- EC90 [26]: 60 ± 14.8 µM
- time to maximum intracellular concentration [1]: 0.5 to 1 h
- EC50 [27]: 22 ± 7.7 µM
- EC90 [27]: 69.2 ± 19.3 µM
- EC50 [28]: 19 ± 8.6 µM
- EC90 [28]: 53.4 ± 12.8 µM
